Results reported in patent US8821568B2, “Implant modified with non-hydroxylated vitamin D precursors” (Numat Biomedical S.L., priority 2008, dated 2014).

What was measured:
Assay type in all cases: cell-based, mouse
[1] = test system: MC3T3-E1 cells; experiment: Cell number (DNA content) and cell covered surface on coated titanium implants; settings: Ti implants, 48 h
Procedure: Cells growing on the different surfaces were lysed after 48 hours of cell culture by a freeze-thaw method in deionized distilled water. Cell lysates were used for determination of DNA quantity using Hoechst 33258 fluorescence assay. Samples were mixed with 20 μg/ml of Hoechst 33258 fluorescence stain (Sigma, St. Quentin Fallavier, France) in THE buffer at pH 7.4 containing 10 mM Tris-HCl, 1 mM EDTA and 2 M NaCl. The intensity of fluorescence was measured at excitation and emission wavelengths of 356/465 nm using a multifunction microplate reader (Cary Eclipse fluorescence spectrophotometer, Agilent Technologies, Santa Clara, United States). Relative fluorescence units were correlated with the cell number using a linear standard curve.
Confocal images were obtained of cells growing in the different treated surfaces at 48 hours of cell culture. […] Various images of each implant were taken with the confocal microscope (Leica DMI 4000B equipped with Leica TCS SPE laser system) by measuring fluorescence signal between 430-480 nm for DAPI and 500-525 nm for Phalloiding-FITC. […]
Quantitation of the percentage of titanium surface covered with MC3T3-E1cells was achieved by analyzing the previous images with ImageJ software (Rasband, W. S., ImageJ, U. S. National Institutes of Health, Bethesda, Md., USA).

[2] = test system: MC3T3-E1 cells; experiment: LDH activity (cell viability) on coated titanium implants
Procedure: To treat implant surfaces, 10 μl of each dilution treatment were left on the surfaces and were allowed to air-dry for 15 min in the sterile flow bench. For UV-irradiation, a UV lamp of 302 nm was used at an intensity of irradiation ca. 6 mW/cm^2 during several irradiation times.
To test the effect of the surface modification, 96-well plates were used. Ti disks were placed into the wells and treatments and UV-activation were performed over there. Cells grown onto untreated polystyrene tissue culture plastic (TCP) were added as a control for all the experiments. Cells were seeded at a density of 30,000 cells/cm^2 and they were maintained in α-MEM supplemented with 10% FCS and antibiotics. […] Cells were harvested after two days of culture using Trizol reagent (Roche Diagnostics, Mannheim, Germany), to analyze gene expression of several osteoblast differentiation markers and enzymes involved in vitamin D synthesis using real-time RT-PCR. […]
Lactate dehydrogenase (LDH) activity in the culture media was used as an index of cell death. LDH activity was determined spectrophotometrically after 30 min incubation at 25° C. of 50 μl of culture and 50 μl of the reaction mixture by measuring the oxidation of NADH at 490 nm in the presence of piruvate following the manufacturer's protocol (Cytotoxicity Detection Kit (LDH), Roche Diagnostics, Mannheim, Germany). […]

[3] = test system: MC3T3-E1 cells; experiment: Calcium content (mineralization, ICP-AES) on coated titanium implants; settings: Ti implants; 28 days; UV-treated compared to UV-untreated cells and control group
Procedure: To test the effect of the surface modification, 96-well plates were used. Ti disks were placed into the wells and treatments and UV-activation were performed over there. Cells grown onto untreated polystyrene tissue culture plastic (TCP) were added as a control for all the experiments. Cells were seeded at a density of 30,000 cells/cm^2 and they were maintained in α-MEM supplemented with 10% FCS and antibiotics. Culture media was collected after 48 hours, to test cytotoxicity and the production of the hydroxylated form of vitamin D, 25-D3. Cells were harvested after two days of culture using Trizol reagent (Roche Diagnostics, Mannheim, Germany), to analyze gene expression of several osteoblast differentiation markers and enzymes involved in vitamin D synthesis using real-time RT-PCR. […]
[…] Cell lysates were put into freeze/thaw cycles (liquid nitrogen and 37° C. water bath) to improve protein recovery. […] ALP activity was calculated by measuring the cleavage of p-Nitrophenyl Phosphate (pNPP) (Sigma, St. Louis, Mo., USA) in a soluble yellow end product which absorbs at 405 nm. […] At this point, absorbance was read at 405 nm.
To determine calcium content samples were analyzed by inductively coupled plasma atomic emission spectrometry (Optima 5300 DV, PerkinElmer, Massachussetts, USA). […]

CC(C)CCC[C@@H](C)[C@H]1CC[C@H]2C3=CC=C4C[C@@H](O)CC[C@]4(C)[C@H]3CC[C@]12C [7-DHC, 7-dehydrocholesterol]
Cell number (DNA content) ([1]; 30 minutes of UV irradiation vs UV-untreated): significantly higher amount of cells | Percentage of implant surface covered with cells ([1]; 30 minutes of UV irradiation vs without irradiation): significant greatest percentage | Cytotoxic effect ([2]; Ti implants treated and UV-irradiated): No cytotoxic effect | Cell viability (LDH activity) ([2]; Ti implants, 0.2 nmols, 24 h, UV-activated 5 to 10 minutes, compared to negative control (TCP)): protective effects | Calcium content [3]: significant increase
